This note sets out measurements from patent US5770625A, “Butyryl-tyrosinyl spermine, analogs thereof and methods of preparing and using same” (priority 1994, dated 1998).

The structures appear in SMILES notation. Where two headings read alike, the source gives them in different places.

In the test the test system is postsynaptic QUIS-R of locust leg muscle. Nature of the test: Antagonism of neurally-evoked twitch contraction of locust retractor unguis nerve-muscle preparation. The note with it: for IC50: read-out: IC50. Details: species or system Schistocerca gregaria. The source says:
Electrophysiological studies. The metathoracic retractor unguis nerve-muscle preparation of the locust Schistocerca gregaria was dissected and mounted in a small Perspex bath as described previously (21). The pharmacological activity on the locust nerve muscle preparation, using reduction in neurally evoked twitch amplitude as the measure of activity. Ten fractions were pharmacologically active. […] Further purification of this fraction by reverse-phase HPLC gave four peaks (FIG. 2B), the most pharmacologically was in the major peak (hatched FIG. 2B) . This fraction gave 1.1 mg of toxin as amorphous powder.
The retractor unguis muscle and its nerve were dissected from the metathoracic legs of adult, female locusts (Schistocerca gregaria) and mounted in a Perspex perfusion chamber as described by Usherwood and Machili (21) and Bateman, et al. (14). The muscle was stretched to maximal body length and attached at its tendon or apodeme to a Grass FT 10-strain gauge by a short length of nylon thread. The volume of the muscle bath was about 0.5 ml and its contents could be exchanged within 1 sec. The preparation was perfused continuously at the rate of 5-10 ml min^-1 (except during the application of toxin (see below)) with standard locust saline of the following composition (mM): NaCl, 180; KCl, 10; CaCl2, 2; Hepes, 10; buffered to pH 6.8. The retractor unguis muscle is innervated by two excitatory motoneurons (30) and an inhibitory motoneuron (19,32), but the influence of the latter on the responsiveness of the muscle is slight. Maximal stimulation of the retractor unguis nerve at 0.2 Hz produced a series of twitch contractions of constant amplitude, which were maintained for many hours in good preparations. The test compounds were kept at -20° C. They were dissolved in locust saline on the day of the assay and tested at room temperature. The compounds were applied by pipette to a nerve-muscle preparation such that the contents of the perfusion bath were completely replaced by the test solution. Exposure to the test compound lasted 20 min. Because of the limited availability of some of the compounds, the preparation was not perfused during this period. However, the amplitude of the retractor unguis muscle twitch rarely changed by more than 5-10% over a 20 minute period. During application of the test solutions the stimulation frequency was raised to 0.6 Hz for brief periods to test for stimulus frequency-dependent effects on twitch amplitude (31,37). Dose-inhibition data were obtained by testing the effects, on single retractor unguis muscle preparations, of a range of concentrations of the test compounds. Each concentration of the respective samples was tested at least thee times, and each compound was assayed usually over a 100-fold concentration range (a total of 7-10 concentrations). The standard deviations for twitch inhibition for any given concentration of a toxin rarely exceed 10%. Those compounds for which the deviation was greater than this are identified in Tables 1-7. There was some variation in the potency of PhTX-343 and the test compounds between nerve-muscle preparations. In order to compensate for this, the following procedure was adopted: PhTX-343 was assayed at a variety of concentrations on eight retractor unguis nerve-muscle preparations to give a cumulative dose-inhibition relationship for this toxin. The concentration of PhTX-343 which reduced the twitch contraction by 50% (IC50) was then determined by fitting a curve to the data using the following equation: [formula] where: [T]= toxin concentration, I= % inhibition, Imax =maximum inhibition= 100% and n' represents the Hill slope coefficient. […] The ratio of the actual reduction in twitch amplitude obtained with this single concentration of PhTX-343 and the 50% reduction that was anticipated from the cumulative dose-inhibition relationship for this toxin, was then used as a factor to normalize the data for the test compound. […]

[1] abbreviates: Table 1, region A modifications, 20 min exposure, normalized with PhTX-343, ** SD < 30%.
The mark [2] stands for this setting: Table 1, relative to PhTX-343 = 1.0.
The mark [3] stands for this setting: Table 3, region C modifications.
Where [4] appears, read: Table 3, relative to PhTX-343 = 1.0.
The mark [5] stands for this setting: Table 6, bis analogues of PhTX-343.

A word on the IC50: it is the concentration needed to halve the response being measured. Regarding `CCCC(=O)N[C@@H](Cc1ccc(O)cc1)C(=O)NCCCNCCCCNCCCN` [drawing 21], the IC50 under setting [1] is 23 µM. Also, under setting [2], the “Relative Potency” value turned out to be 1.0.

Turning to `NCCCNCCCCNCCCNC(=O)[C@H](Cc1ccc(O)cc1)NC(=O)CCCCC1SCC2NC(=O)NC21` (stereo partly shown) [Compound 30], the “IC50 (M)” value under setting [3] is recorded as “insol”.

On to `CCCC(=O)N[C@@H](Cc1ccc(O)cc1)C(=O)NCCC[N+](C)(C)CCCC[N+](C)(C)CCC[N+](C)(C)C` [Compound 9], for which the “potency compared with PhTX-343 or other analogues (in words)” value was “reduced potency compared with PhTX-343”.

For the compound `CCCC(=O)NCCCNCCCCNCCCN`, the “IC50 (M)” value (Table 7, mono-acyl spermine analogues) is listed as “agonist”.

With `CCCC(=O)N[C@@H](Cc1c[nH]c2ccccc12)C(=O)NCCCNCCCCNCCCN` [Compound 17], the “increase in potency compared with PhTX-343” value is 10 fold.

Turning to `CCCC(=O)N[C@@H](Cc1ccc(O)cc1)C(=O)NCCCNCCCCNCCCNC(=O)CN` [Compound 33], the “potency compared with PhTX-343 or other analogues (in words)” value is on record as “potency was reduced”.

With `NCCCNCCCCNCCCNC(=O)[C@H](Cc1ccc(O)cc1)NC(=O)C1CCCCC1` [drawing 46], the half-inhibitory concentration (IC50) under setting [3] turned out to be 9.3 µM. For the same compound, the “Relative Potency” value under setting [4] worked out at 2.5.

Turning to `[N-]=[N+]=Nc1ccc(C(=O)N[C@@H](Cc2ccc(O)cc2)C(=O)NCCCNCCCCNCCCN)cc1` [drawing 50], the half-maximal inhibitory concentration (IC50) under setting [3] was found to be 4.2 µM. Also, under setting [4], the “Relative Potency” value is reported as 5.5.

For the compound `CCCC(=O)N[C@@H](Cc1ccc(OCc2ccccc2)cc1)C(=O)NCCCNCCCCNCCCN` [Compound 12, N-butyryl-O-benzyl-L-tyrosine-spermineamide], the “potency compared with PhTX-343 or other analogues (in words)” value is “unchanged potencies”.

For the compound `CCCC(=O)N[C@@H](Cc1ccc(O)cc1)C(=O)NCCCNCCCCNCCCN` [drawing 41], the half-inhibitory concentration (IC50) under setting [3] is 23 µM. In addition, under setting [4], the “Relative Potency” value was found to be 1.0.

On to `C/C=C/C=C/C(=O)N[C@@H](Cc1ccc(O)cc1)C(=O)NCCCNCCCCNCCCN` [drawing 45], for which, under setting [3], the IC50 was 1.6 µM. Further, under setting [4], the “Relative Potency” value worked out at 14.0.

As for `CCCC(=O)N[C@@H](C)C(=O)NCCCNCCCCNCCCN` [Compound 15], the “potency compared with PhTX-343 or other analogues (in words)” value is reported as “slightly reduced”.

Regarding `CCCC(=O)N[C@@H](Cc1cc(I)c(O)c(I)c1)C(=O)NCCCNCCCCNCCCNC(=O)[C@@H](N)CCCNC(=N)N` [drawing 66], the IC50 (Table 5, modifications to more than one region) was found to be 0.7 µM. In addition, for the setting “Table 5, relative to PhTX-343”, the “Relative Potency” value is 33.

In the case of `NCCCNCCCCNCCCNC(=O)[C@H](Cc1ccc(O)cc1)NC(=O)C1CCCCC1` [Compound 22], the “potency compared with PhTX-343 or other analogues (in words)” value is on record as “equal to that of compound 19”.

In the case of `CCCCC(CNCCCN)CNCCCCNC(=O)[C@H](Cc1ccc(O)cc1)NC(=O)CCC` (stereo partly shown) [Compound 8, PhTX-(butyl)433], the “potency compared with PhTX-343 or other analogues (in words)” value is recorded as “increased potency by almost six-fold”.

`CCCC(=O)N[C@@H](Cc1ccc(O)cc1)C(=O)NCCCCNCCCNCCCN` [drawing 22]: under setting [1], the concentration for half-maximal inhibition (IC50) was found to be 18 µM. Also, the “Relative Potency” value under setting [2] stood at 1.3.

As for `O=C(N[C@@H](Cc1ccc(O)cc1)C(=O)NCCCNCCCCNCCCNC(=O)[C@H](Cc1ccc(O)cc1)NC(=O)c1ccccc1)c1ccccc1`, the IC50 under setting [5] was determined as 110 µM. Moreover, the “Relative Potency” value (Table 6, relative to PhTX-343) was determined as 0.2.

As to `CCCCCCC(=O)N[C@@H](Cc1ccc(O)cc1)C(=O)NCCCNCCCCNCCCN` [Compound 19], the “potency compared with PhTX-343 or other analogues (in words)” value is reported as “successive increases in potency”.

With `CCCC(=O)N[C@@H](Cc1ccc(O)cc1)C(N)=O` [drawing 26], under setting [1], the IC50 came out at 500 µM. Besides, under setting [2], the “Relative Potency” value was found to be 0.05.

As for `CCCCCCC(=O)N[C@@H](Cc1ccc(O)cc1)C(=O)NCCCNCCCCNCCCNC(=O)[C@H](Cc1ccc(O)cc1)NC(=O)CCCCCC`, the “IC50 (M)” value under setting [5] is listed as “insol”.

For the compound `CCCC(=O)N[C@@H](CC(C)C)C(=O)NCCCNCCCCNCCCN` [Compound 14], the “potency compared with PhTX-343 or other analogues (in words)” value is reported as “unchanged”.

Consider `CCCC(=O)N[C@@H](Cc1ccc(O)cc1)C(=O)NCCCNCCCCNCCCNC(=O)C(N)CCCCN` (stereo partly shown) [Compound 35], for which the “potency compared with PhTX-343 or other analogues (in words)” value is “increased potency”.
